In patent publication US10376499B2, “Combination therapy for treatment of resistant bacterial infections” (priority 2014, dated 2019):
Converted amounts (≈) assume the structure as drawn.

Legend:
Enterobacter cloacae = assay: MIC, recent Enterobacteriaceae clinical isolates: Enterobacter cloacae (Examples 7, 11); assay type: cell-based
Citrobacter spp = assay: MIC, recent Enterobacteriaceae clinical isolates: Citrobacter spp (Examples 7, 11); assay type: cell-based
Enterobacteriaceae = assay: organism not typed; assay type: cell-based
A. baumannii [1] = assay: MIC, 20 diverse recent strains of A. baumannii (Example 10); assay type: cell-based, Acinetobacter baumannii; conditions: N 20 A. baumannii strains
A. baumannii [2] = assay: Neutropenic mouse thigh and lung infection models; conditions: neutropenic CD-1 mice, subcutaneous q3h, sulbactam+compound 1 at 4:1 ratio, 24 h, isolate containing AmpC, OXA-66, OXA-72, TEM-1, FIG. 4
Escherichia coli = assay: MIC, recent Enterobacteriaceae clinical isolates: Escherichia coli (Examples 7, 11)
Klebsiella pneumoniae = assay: MIC, recent Enterobacteriaceae clinical isolates: Klebsiella pneumoniae (Examples 7, 11)

`CC1(C)[C@H](C(=O)O)N2C(=O)C[C@H]2S1(=O)=O` [Sulbactam, (2S,5R)-3,3-dimethyl-7-oxo-4-thia-1-azabicyclo[3.2.0]heptane-2-carboxylic acid 4,4-dioxide] was tested, and the MIC50 (Enterobacter cloacae) was 64 mg/L (≈ 274 µM), the MIC (Enterobacter cloacae; Enterobacter cloacae ARC4438, AmpC+) was 128 mg/L (≈ 549 µM) and the MIC (Enterobacter cloacae; Enterobacter cloacae ARC4444, AmpC+, MIR-8[I175L]) was 64 mg/L (≈ 274 µM). It also gave an MIC (Enterobacter cloacae; Enterobacter cloacae ARC4458, AmpC+, ACT-2[V312M]) of 64 mg/L (≈ 274 µM), an MIC (Enterobacter cloacae; Enterobacter cloacae ARC4473, SHV-5+, AmpC+, DHA-1+, TEM-1+) of 128 mg/L (≈ 549 µM) and an MIC (Enterobacter cloacae; Enterobacter cloacae ARC4489, AmpC+) of 128 mg/L (≈ 549 µM). The MIC (Enterobacter cloacae; Enterobacter cloacae ARC4492, AmpC+) was 256 mg/L (≈ 1100 µM), the MIC90 (Enterobacter cloacae; N 10) was 128 mg/L (≈ 549 µM) and the MIC range (Enterobacter cloacae; N 10) was 64 to 256 mg/L. It also gave an MIC50 (Citrobacter spp; Citrobacter) of 256 mg/L (≈ 1100 µM), an MIC90 (Citrobacter spp; Citrobacter) of over 256 mg/L and an MIC (Citrobacter spp; Citrobacter braakii ARC3660, CTX-M-15) of 32 mg/L (≈ 137 µM). For the same compound, the MIC (Citrobacter spp; Citrobacter freundii ARC3522, AmpC, TEM-1, CMY65) was over 256 mg/L, the MIC (Citrobacter spp; Citrobacter freundii ARC3883, KPC-2) was 256 mg/L (≈ 1100 µM) and the MIC (Citrobacter spp; Citrobacter freundii ARC3884, KPC-2) was 256 mg/L (≈ 1100 µM). The MIC (Citrobacter spp; Citrobacter freundii ARC3885, AmpH, TEM-1, SHV-5, CMY-6, CMY-13) was 256 mg/L (≈ 1100 µM), the MIC (Citrobacter spp; Citrobacter koseri ARC2001, ESBL) was 64 mg/L (≈ 274 µM) and the MIC (Citrobacter spp; Citrobacter koseri ARC2002, ESBL) was 64 mg/L (≈ 274 µM). It also gave an MIC50 (Enterobacteriaceae) of 64 mg/L (≈ 274 µM), an MIC90 (Enterobacteriaceae) of 256 mg/L (≈ 1100 µM) and an MIC50 (A. baumannii [1]) of 16 mg/L (≈ 68.6 µM). The MIC90 (A. baumannii [1]) was 64 mg/L (≈ 274 µM), the MIC Max (A. baumannii [1]) was over 64 mg/L and the MIC Min (A. baumannii [1]) was 2 mg/L (≈ 8.57 µM). The “efficacy (mean delta log CFU)” value (A. baumannii [2]) was “failed to show efficacy”, the MIC (Escherichia coli; Escherichia coli) was 128 mg/L (≈ 549 µM) and the MIC50 (Escherichia coli; Escherichia coli) was 64 mg/L (≈ 274 µM). The MIC90 (Escherichia coli; Escherichia coli) was 64 mg/L (≈ 274 µM), the MIC (Escherichia coli; Escherichia coli ARC4471, CMY-2+, OXA-1+, TEM-1+) was 128 mg/L (≈ 549 µM) and the MIC (Escherichia coli; Escherichia coli, ATCC25922, Escherichia coli ARC4, none (ATCC 25922) CLSI control) was 64 mg/L (≈ 274 µM). For the same compound, the MIC (Escherichia coli; Escherichia coli, Escherichia coli ARC4416, CTX-M-14+, TEM-1+) was 32 mg/L (≈ 137 µM), the MIC (Escherichia coli; Escherichia coli, Escherichia coli ARC4418, CTX-M-14+, CMY-2+) was 32 mg/L (≈ 137 µM) and the MIC (Escherichia coli; Escherichia coli, Escherichia coli ARC4419, SHV-12+) was 32 mg/L (≈ 137 µM). For the same compound, the MIC (Escherichia coli; Escherichia coli, Escherichia coli ARC4421, CTX-M-55, TEM-1+, CMY-2+) was 64 mg/L (≈ 274 µM), the MIC (Escherichia coli; Escherichia coli, Escherichia coli ARC4426, TEM-1+, CMY-2+) was 32 mg/L (≈ 137 µM) and the MIC (Escherichia coli; Escherichia coli, Escherichia coli ARC4429, TEM-1+, CMY-2+) was 64 mg/L (≈ 274 µM). It also gave an MIC (Escherichia coli; Escherichia coli, Escherichia coli ARC4436, CTX-M-14+, TEM-1+) of 32 mg/L (≈ 137 µM), an MIC (Escherichia coli; Escherichia coli, Escherichia coli ARC4449, CMY-2+, TEM-1+) of 64 mg/L (≈ 274 µM) and an MIC (Escherichia coli; Escherichia coli, Escherichia coli ARC4450, TEM-1+, OXA-1+, CMY-2+) of 64 mg/L (≈ 274 µM). It also gave an MIC (Escherichia coli; Escherichia coli, Escherichia coli ARC4452, SHV-12+) of 32 mg/L (≈ 137 µM), an MIC (Escherichia coli; Escherichia coli, Escherichia coli ARC4455, SHV-12+) of 32 mg/L (≈ 137 µM) and an MIC (Escherichia coli; Escherichia coli, Escherichia coli ARC4465, CMY-2+) of 32 mg/L (≈ 137 µM). For the same compound, the MIC (Escherichia coli; Escherichia coli, Escherichia coli ARC4472, CMY-2+, TEM-1+) was 64 mg/L (≈ 274 µM), the MIC (Escherichia coli; Escherichia coli, Escherichia coli ARC4477, CTX-M-15+, TEM-1+) was 32 mg/L (≈ 137 µM) and the MIC (Escherichia coli; Escherichia coli, Escherichia coli ARC4478, CTX-M-15+, CMY-2+) was 32 mg/L (≈ 137 µM). The MIC (Escherichia coli; Escherichia coli, Escherichia coli ARC4479, CMY-42+, OXA-1+, OXA-9+, TEM-1+) was 64 mg/L (≈ 274 µM), the MIC (Escherichia coli; Escherichia coli, Escherichia coli ARC4485, CMY-2+, OXA-1+, CTX-M-15+) was 64 mg/L (≈ 274 µM) and the MIC (Escherichia coli; Escherichia coli, Escherichia coli ARC4487, SHV-5+, DHA-1+, TEM-1+, OXA-1+, CMY-2+) was 64 mg/L (≈ 274 µM). For the same compound, the MIC50 (Klebsiella pneumoniae) was 64 mg/L (≈ 274 µM), the MIC90 (Klebsiella pneumoniae) was over 256 mg/L and the MIC (Klebsiella pneumoniae; Klebsiella pneumoniae ARC4420, SHV-11, SHV-12, DHA-1, OXA-1) was 128 mg/L (≈ 549 µM). For the same compound, the MIC (Klebsiella pneumoniae; Klebsiella pneumoniae ARC4427, SHV-1, OXA-1) was over 256 mg/L, the MIC (Klebsiella pneumoniae; Klebsiella pneumoniae ARC4451, SHV-11, KPC-3) was over 256 mg/L and the MIC (Klebsiella pneumoniae; Klebsiella pneumoniae ARC4457, SHV-11, DHA-1) was 64 mg/L (≈ 274 µM). It also gave an MIC (Klebsiella pneumoniae; Klebsiella pneumoniae ARC4460, SHV-11, CTX-M15, OXA-1, NDM-1) of over 256 mg/L.
